Data from US11173446B2, “Process for removal of acid gases from a fluid stream” (BASF SE, priority 2017, dated 2021).

Columns and labels:
[1] = Volatility of 30% by weight aqueous amine solutions (Example 4); format: physicochemical; settings: 30% by weight aqueous solutions, 50° C.
[2] = pKa of the amino groups by titration with hydrochloric acid (Example 5); format: physicochemical; settings: 20° C.
From the text: An aqueous amine solution (0.005 mol/L) was titrated with hydrochloric acid (0.1 mol/L).

With `CC(C)(C)NCC(O)CO` (centres unmarked) [TBAPD, 3-(tert-butylamino)propane-1,2-diol] the “volatility, comparison in words” value [1] was “lower volatility compared to the M3ETB, TBAEE and MDEA” and the “pKA value, comparison in words” value [2] was “greater than that of MDEA”.
